The values below come from patent US8771665B2 (Cocrystal Discovery, Inc., priority 2010, dated 2014).

For the assay, the target named is T1, HCV1b NS5B polymerase delta 21 (Hepatitis C virus genotype 1b, UniProt P26663).
T1 construct: purified HCV1b NS5B polymerase delta 21
In words: RNA-Dependent RNA HCV NS5B (Polymerase) Assay and IC50 Determination. The class given is biochemical. The procedure, abridged:
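Purified NS5B Δ21 (0.6 μg) with polyA:U16 template, 10 μM UTP plus α-32P UTP in Tris-HCl pH 7.5, 5 mM MgCl2, 0.5% Triton X-100, 60 min at 23°C with varied compound concentrations. Radiolabelled RNA captured on filters, quantified by phosphorimaging; IC50 from triplicate assays.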

By IC50 is commonly meant the concentration needed to halve the response being measured. Higher therefore signals a need for much substance.

Read-outs that look alike come from different tables or passages of the source.

T1 sequence (P26663 2420-2989): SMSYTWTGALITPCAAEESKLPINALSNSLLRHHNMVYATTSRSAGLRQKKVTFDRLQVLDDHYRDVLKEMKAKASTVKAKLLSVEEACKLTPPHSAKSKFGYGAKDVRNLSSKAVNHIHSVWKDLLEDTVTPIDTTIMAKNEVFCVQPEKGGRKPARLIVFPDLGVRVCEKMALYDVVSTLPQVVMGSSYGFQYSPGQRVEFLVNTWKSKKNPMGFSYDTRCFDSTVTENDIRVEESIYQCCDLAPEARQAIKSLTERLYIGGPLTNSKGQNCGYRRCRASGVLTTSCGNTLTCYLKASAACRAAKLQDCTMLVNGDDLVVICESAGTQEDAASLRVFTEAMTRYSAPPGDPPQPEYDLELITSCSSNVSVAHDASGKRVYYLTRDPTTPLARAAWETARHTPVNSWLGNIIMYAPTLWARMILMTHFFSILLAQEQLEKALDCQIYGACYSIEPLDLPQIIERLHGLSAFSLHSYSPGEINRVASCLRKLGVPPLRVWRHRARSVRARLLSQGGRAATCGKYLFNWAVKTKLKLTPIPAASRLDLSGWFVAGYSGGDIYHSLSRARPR

Regarding `CC1CCC(C2=C(c3cc(-c4ccccc4)sc3C(=O)O)CCN(S(C)(=O)=O)C2)CC1` (centres unmarked) [Example 039, 3-[1-Methanesulfonyl-5-(4-methyl-cyclohexyl)-1,2,3,6-tetrahydro-pyridin-4-yl]-5-phenyl-thiophene-2-carboxylic acid], the IC50 is above 10 µM. As for `CC1CCC(C2=C(c3cc(-c4ccccc4)sc3C(=O)O)CCN(Cc3ccccc3)C2)CC1` (centres unmarked) [Example 079, 3-[1-Benzyl-5-(4-methyl-cyclohexyl)-1,2,3,6-tetrahydro-pyridin-4-yl]-5-phenyl-thiophene-2-carboxylic acid], the IC50 (purified HCV1b NS5B polymerase delta 21, polyA:U16, RT 60 min, triplicate assays) lay within 3 to 10 µM. `CCCC(C)C#Cc1cc(C2=C(C3CCC(C)CC3)CN(CC)CC2)c(C(=O)O)s1` (centres unmarked) [Example 030, 3-[1-Ethyl-5-(4-methyl-cyclohexyl)-1,2,3,6-tetrahydro-pyridin-4-yl]-5-(3-methyl-hex-1-ynyl)-thiophene-2-carboxylic acid] had an IC50 above 10 µM. Compound `CC1CCC(C2=C(c3cc(-c4ccccc4)sc3C(=O)O)CCN(C(=O)c3ccccc3)C2)CC1` (centres unmarked) [Example 072, 3-[1-Benzoyl-5-(4-methyl-cyclohexyl)-1,2,3,6-tetrahydro-pyridin-4-yl]-5-phenyl-thiophene-2-carboxylic acid] registered an IC50 above 10 µM.

Compound `CCc1cc(CC)n2nc(CN3CCC(c4cc(-c5ccccc5)sc4C(=O)O)=C(C4CCC(C)CC4)C3)nc2n1` (centres unmarked) [Example 150, 3-[1-(5,7-Diethyl-[1,2,4]triazolo[1,5-a]pyrimidin-2-ylmethyl)-5-(4-methyl-cyclohexyl)-1,2,3,6-tetrahydro-pyridin-4-yl]-5-phenyl-thiophene-2-carboxylic acid] came in with an IC50 below 3 µM.

As to `CC1CCC(C2=C(c3cc(-c4ccccc4)sc3C(=O)O)CCN(C(N)=O)C2)CC1` (centres unmarked) [Example 084, 3-[1-Carbamoyl-5-(4-methyl-cyclohexyl)-1,2,3,6-tetrahydro-pyridin-4-yl]-5-phenyl-thiophene-2-carboxylic acid], the IC50 was below 3 µM. Take `CCN1CCC(c2cc(-c3ccc(NC(=O)c4cn(C)cn4)cc3)sc2C(=O)O)=C(C2CCC(C)CC2)C1` (centres unmarked) [Example 057, 3-[1-Ethyl-5-(4-methyl-cyclohexyl)-1,2,3,6-tetrahydro-pyridin-4-yl]-5-{4-[(1-methyl-1H-imidazole-4-carbonyl)-amino]-phenyl}-thiophene-2-carboxylic acid]: the IC50 is below 3 µM.

`CC1CCC(C2=C(c3cc(-c4ccc(/C=C/c5cscn5)cc4)sc3C(=O)O)CCN(C)C2)CC1` (centres unmarked) [Example 158, 3-[1-Methyl-5-(4-methyl-cyclohexyl)-1,2,3,6-tetrahydro-pyridin-4-yl]-5-[4-(2-thiazol-4-yl-vinyl)-phenyl]-thiophene-2-carboxylic acid] displayed an IC50 above 10 µM. Still for that read-out and setting: the value for `CC1CCC(C2=C(c3cc(-c4ccccc4)sc3C(=O)O)CCN(C(=O)c3cnccn3)C2)CC1` (centres unmarked) [Example 045, 3-[5-(4-Methyl-cyclohexyl)-1-(pyrazine-2-carbonyl)-1,2,3,6-tetrahydro-pyridin-4-yl]-5-phenyl-thiophene-2-carboxylic acid] was below 3 µM.

Regarding `CCN1CCC(c2cc(-c3ccc(NC(C)=O)cc3)sc2C(=O)O)=C(C2CCC(C)CC2)C1` (centres unmarked) [Example 018, 5-(4-Acetylamino-phenyl)-3-[1-ethyl-5-(4-methyl-cyclohexyl)-1,2,3,6-tetrahydro-pyridin-4-yl]-thiophene-2-carboxylic acid], the IC50 fell in the range of 3 to 10 µM. Still for that read-out and setting: the value for `CCN1CCC(c2cc(-c3cccc(NC(=O)c4cccs4)c3)sc2C(=O)O)=C(C2CCC(C)CC2)C1` (centres unmarked) [Example 027, 3-[1-Ethyl-5-(4-methyl-cyclohexyl)-1,2,3,6-tetrahydro-pyridin-4-yl]-5-{3-[(thiophene-2-carbonyl)-amino]-phenyl}-thiophene-2-carboxylic acid] was above 10 µM; that for `CCCC(=O)OCOC(=O)c1sc(-c2ccc(NC(=O)c3cscn3)cc2)cc1C1=C(C2CCC(C)CC2)CN(C)CC1` (centres unmarked) [Example 105, 3-[1-Methyl-5-(4-methyl-cyclohexyl)-1,2,3,6-tetrahydro-pyridin-4-yl]-5-{4-[(thiazole-4-carbonyl)-amino]-phenyl}-thiophene-2-carboxylic acid butyryloxymethyl ester] was 3 to 10 µM; that for `CCN1CCC(c2cc(-c3ccc(NC(=O)c4nccs4)cc3)sc2C(=O)O)=C(C2CCC(C)CC2)C1` (centres unmarked) [Example 066, 3-[1-Ethyl-5-(4-methyl-cyclohexyl)-1,2,3,6-tetrahydro-pyridin-4-yl]-5-{4-[(thiazole-2-carbonyl)-amino]-phenyl}-thiophene-2-carboxylic acid] was below 3 µM. In the case of `CC1CCC(C2=C(c3cc(-c4ccccc4)sc3C(=O)O)CCN(C(=O)Cc3ccc4ccccc4c3)C2)CC1` (centres unmarked) [Example 096, 3-[5-(4-Methyl-cyclohexyl)-1-(2-naphthalen-2-yl-acetyl)-1,2,3,6-tetrahydro-pyridin-4-yl]-5-phenyl-thiophene-2-carboxylic acid], the IC50 is above 10 µM. For the compound `CC1CCC(C2=C(c3cc(-c4ccccc4)sc3C(=O)O)CCN(CC3CC3)C2)CC1` (centres unmarked) [Example 006, 3-[1-Cyclopropylmethyl-5-(4-methyl-cyclohexyl)-1,2,3,6-tetrahydro-pyridin-4-yl]-5-phenyl-thiophene-2-carboxylic acid], the IC50 is below 3 µM. In turn, `CC1CCC(C2=C(c3cc(-c4ccccc4)sc3C(=O)O)CCN(CCCO)C2)CC1` (centres unmarked) [Example 008, 3-[1-(3-Hydroxy-propyl)-5-(4-methyl-cyclohexyl)-1,2,3,6-tetrahydro-pyridin-4-yl]-5-phenyl-thiophene-2-carboxylic acid] displayed an IC50 below 3 µM. In turn, `CC1CCC(C2=C(c3cc(-c4ccccc4)sc3C(=O)O)CCN(CCCc3ccccc3)C2)CC1` (centres unmarked) [Example 110, 3-[5-(4-Methyl-cyclohexyl)-1-(4-phenyl-propyl)-1,2,3,6-tetrahydro-pyridin-4-yl]-5-phenyl-thiophene-2-carboxylic acid] came in with an IC50 above 10 µM. The compound `CC1CCC(C2=C(c3cc(-c4ccccc4)sc3C(=O)O)CCN(Cc3cccnc3)C2)CC1` (centres unmarked) [Example 089, 3-[5-(4-Methyl-cyclohexyl)-1-pyridin-3-ylmethyl-1,2,3,6-tetrahydro-pyridin-4-yl]-5-phenyl-thiophene-2-carboxylic acid] came in with an IC50 below 3 µM. `CC1CCC(C2=C(c3cc(C#CC(C)(C)C)sc3C(=O)O)CN(CCCO)CC2)CC1` (centres unmarked) [Example 114, 5-(3,3-Dimethyl-but-1-ynyl)-3-[1-(3-hydroxy-propyl)-4-(4-methyl-cyclohexyl)-1,2,5,6-tetrahydro-pyridin-3-yl]-thiophene-2-carboxylic acid] came in with an IC50 below 3 µM. The same measure, in the same setting: as for `CC1CCC(C2=C(c3cc(-c4ccccc4)sc3C(=O)O)CCN(Cc3ccnc(-c4cccs4)c3)C2)CC1` (centres unmarked) [Example 145, 3-[5-(4-Methyl-cyclohexyl)-1-(2-thiophen-2-yl-pyridin-4-ylmethyl)-1,2,3,6-tetrahydro-pyridin-4-yl]-5-phenyl-thiophene-2-carboxylic acid], the figure is above 10 µM.

`CCN1CCC(c2cc(-c3ccc(NC(=O)c4cscn4)cc3)sc2C(=O)O)=C(C2CCC(C)CC2)C1` (centres unmarked) [Example 019, 3-[1-Ethyl-5-(4-methyl-cyclohexyl)-1,2,3,6-tetrahydro-pyridin-4-yl]-5-{4-[(thiazole-4-carbonyl)-amino]-phenyl}-thiophene-2-carboxylic acid] yielded an IC50 below 3 µM. Same read-out and setting: as for `CCOC(=O)OCOC(=O)c1sc(-c2ccc(NC(=O)c3cscn3)cc2)cc1C1=C(C2CCC(C)CC2)CN(C)CC1` (centres unmarked) [Example 107, 3-[1-Methyl-5-(4-methyl-cyclohexyl)-1,2,3,6-tetrahydro-pyridin-4-yl]-5-{4-[(thiazole-4-carbonyl)-amino]-phenyl}-thiophene-2-carboxylic acid ethoxycarbonyloxymethyl ester], the figure is below 3 µM; as for `CCN1CCC(c2cc(-c3ccc(NC(=O)C4CCCO4)cc3)sc2C(=O)O)=C(C2CCC(C)CC2)C1` (centres unmarked) [Example 058, 3-[1-Ethyl-5-(4-methyl-cyclohexyl)-1,2,3,6-tetrahydro-pyridin-4-yl]-5-{4-[(tetrahydro-furan-2-carbonyl)-amino]-phenyl}-thiophene-2-carboxylic acid], below 3 µM. On the same count and under the same terms, the value for `COC(=O)N1CCC(c2cc(-c3ccccc3)sc2C(=O)O)=C(C2CCC(C)CC2)C1` (centres unmarked) [Example 074, 4-(2-Carboxy-5-phenyl-thiophen-3-yl)-5-(4-methyl-cyclohexyl)-3,6-dihydro-2H-pyridine-1-carboxylic acid methyl ester] was 3 to 10 µM; that for `CCN1CCC(c2cc(C#CC3CC3)sc2C(=O)O)=C(C2CCC(C)CC2)C1` (centres unmarked) [Example 017, 5-Cyclopropylethynyl-3-[1-ethyl-5-(4-methyl-cyclohexyl)-1,2,3,6-tetrahydro-pyridin-4-yl]-thiophene-2-carboxylic acid] was below 3 µM; that for `CC1CCC(C2=C(c3cc(C#CC(C)(C)C)sc3C(=O)O)CCN(Cc3c(C(F)(F)F)nn(C)c3Cl)C2)CC1` (centres unmarked) [Example 136, 3-[1-(5-Chloro-1-methyl-3-trifluoromethyl-1H-pyrazol-4-ylmethyl)-5-(4-methyl-cyclohexyl)-1,2,3,6-tetrahydro-pyridin-4-yl]-5-(3,3-dimethyl-but-1-ynyl)-thiophene-2-carboxylic acid] was above 10 µM.
